For 32 compounds, IC50 results are on record in US9458153B2, “Dihydroquinolizinones for the treatment and prophylaxis of hepatitis B virus infection” (Hoffmann-La Roche Inc., priority 2014, dated 2016).

Each structure is given as a SMILES string. Structures can show the parent of a compound that is named as a salt.

The test system of the first test is HBsAg. As to the kind of experiment: HBsAg assay (chemiluminescence immunoassay of secreted HBsAg in HepG2.2.15 culture supernatant). The test is classed as cell-based, HBV. The following applies: HBsAg secretion reduced by 50% vs no drug control; HepG2.2.15 cells; CLIA kit. In a few lines: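 IC50 came from dose-response curves of HBsAg in culture supernatant, measured semi-quantitatively by chemiluminescent immunoassay. The HBV-producing HepG2.2.15 line was dosed in duplicate with a three-fold compound dilution series, with DMSO at 1% final and DMSO alone as the no-drug control.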
In general, IC50 refers to the concentration that gives 50% inhibition. Read a low IC50 as greater potency in that assay. Compound `COCCOc1cc2c(cc1OC)-c1cc(=O)c(C(=O)O)cn1C(C(C)C)C2` (single isomer, unassigned; (+)) [Example 129, (+)-6-isopropyl-10-methoxy-9-(2-methoxyethoxy)-2-oxo-6,7-dihydrobenzo[a]quinolizine-3-carboxylic acid] registered a half-maximal inhibitory concentration (IC50) of 12 nM.
As to `CCOCCOc1cc2c(cc1OC)-c1cc(=O)c(C(=O)O)cn1C(CC)C2` (centres unmarked) [Example 42, 9-(2-ethoxyethoxy)-6-ethyl-10-methoxy-2-oxo-6,7-dihydrobenzo[a]quinolizine-3-carboxylic acid], half-maximal inhibition (IC50) was put at 57 nM.
The compound `CCC1Cc2cc(OCc3ccccc3)c(C)cc2-c2cc(=O)c(C(=O)O)cn21` (single isomer, unassigned; (+)) [Example 116, (+)-9-benzyloxy-6-ethyl-10-methyl-2-oxo-6,7-dihydrobenzo[a]quinolizine-3-carboxylic acid] showed an IC50 of 33 nM.
Compound `COc1cc2c(cc1OCC(C)(C)CO)CC(C(C)(C)C)n1cc(C(=O)O)c(=O)cc1-2` (centres unmarked) [Example 149, 6-tert-butyl-9-(3-hydroxy-2,2-dimethyl-propoxy)-10-methoxy-2-oxo-6,7-dihydrobenzo[a]quinolizine-3-carboxylic acid] yielded an IC50 of 2 nM.
As to `CCC1Cc2cc(OCCCOC)c(OC)cc2-c2cc(=O)c(C(=O)O)cn21` (single isomer, unassigned; (-)) [Example 41, (−)-6-ethyl-10-methoxy-9-(3-methoxypropoxy)-2-oxo-6,7-dihydrobenzo[a]quinolizine-3-carboxylic acid], the IC50 worked out at 5770 nM.
In turn, `COc1cc2c(cc1OCCCCCCCCNC(=O)OC(C)(C)C)CC(C(C)(C)C)n1cc(C(=O)O)c(=O)cc1-2` (centres unmarked) [Example 167, 9-[8-(tert-butoxycarbonylamino)octoxy]-6-tert-butyl-10-methoxy-2-oxo-6,7-dihydrobenzo[a]quinolizine-3-carboxylic acid] yielded an IC50 of 11 nM.
On to `COCCOc1cc2c(cc1OC)-c1cc(=O)c(C(=O)O)cn1C(C(C)C)C2` (single isomer, unassigned; (-)) [Example 130, (−)-6-isopropyl-10-methoxy-9-(2-methoxyethoxy)-2-oxo-6,7-dihydrobenzo[a]quinolizine-3-carboxylic acid], for which the IC50 stood at 1540 nM.
Still for that read-out and setting: next, `COc1cc2c(cc1OC)-c1cc(=O)c(C(=O)O)cn1C(C(C)C)C2` (centres unmarked) [Example 98, 6-isopropyl-9,10-dimethoxy-2-oxo-6,7-dihydrobenzo[a]quinolizine-3-carboxylic acid]: 16 nM.
As to `COc1cc2c(cc1OCCCCCCNC(=O)OC(C)(C)C)CC(C(C)(C)C)n1cc(C(=O)O)c(=O)cc1-2` (single isomer, unassigned; (-)) [Example 163, (−)-9-[6-(tert-butoxycarbonylamino)hexoxy]-6-tert-butyl-10-methoxy-2-oxo-6,7-dihydrobenzo[a]quinolizine-3-carboxylic acid], it took 350 nM to reach half-maximal inhibition (IC50).
With `COCCCOc1cc2c(cc1OC)-c1cc(=O)c(C(=O)O)cn1C(C(C)(C)C)C2` (single isomer, unassigned; (+)) [Example 132, (+)-6-tert-butyl-10-methoxy-9-(3-methoxypropoxy)-2-oxo-6,7-dihydrobenzo[a]quinolizine-3-carboxylic acid], half-maximal inhibition (IC50) required 1 nM.
For the compound `CCC1Cc2cc(OCCCOC)c(OC)cc2-c2cc(=O)c(C(=O)O)cn21` (centres unmarked) [Example 39, 6-ethyl-10-methoxy-9-(3-methoxypropoxy)-2-oxo-6,7-dihydrobenzo[a]quinolizine-3-carboxylic acid], the IC50 was determined as 16 nM.
`CCOc1cc2c(cc1OC)-c1cc(=O)c(C(=O)O)cn1C(CC)C2` (centres unmarked) [Example 36, 9-ethoxy-6-ethyl-10-methoxy-2-oxo-6,7-dihydrobenzo[a]quinolizine-3-carboxylic acid] gave an IC50 of 53 nM.
Compound `COc1cc2c(cc1OCC(F)(F)F)CC(C(C)C)n1cc(C(=O)O)c(=O)cc1-2` (centres unmarked) [Example 126, 6-isopropyl-10-methoxy-2-oxo-9-(2,2,2-trifluoroethoxy)-6,7-dihydrobenzo[a]quinolizine-3-carboxylic acid] showed an IC50 of 8 nM.
`CCC1Cc2cc(OCc3ccccc3)c(OC)cc2-c2cc(=O)c(C(=O)O)cn21` (single isomer, unassigned; (+)) [Example 9, (+)-9-benzyloxy-6-ethyl-10-methoxy-2-oxo-6,7-dihydrobenzo[a]quinolizine-3-carboxylic acid] registered an IC50 of 15 nM.
Still for that read-out and setting: next, `COCCCOc1cc2c(c(F)c1F)-c1cc(=O)c(C(=O)O)cn1C(C(C)C)C2` (single isomer, unassigned; (-)) [Example 215, (−)-10,11-difluoro-6-isopropyl-9-(3-methoxypropoxy)-2-oxo-6,7-dihydrobenzo[a]quinolizine-3-carboxylic acid]: 1140 nM; `COCCOc1cc2c(cc1OC)-c1cc(=O)c(C(=O)O)cn1C(C1(C)CC1)C2` (centres unmarked) [Example 134, 10-methoxy-9-(2-methoxyethoxy)-6-(1-methylcyclopropyl)-2-oxo-6,7-dihydrobenzo[a]quinolizine-3-carboxylic acid]: 7 nM; `COc1cc2c(cc1OC)-c1cc(=O)c(C(=O)O)cn1C(CC(C)C)C2` (single isomer, unassigned; (-)) [Example 103, (−)-6-isobutyl-9,10-dimethoxy-2-oxo-6,7-dihydrobenzo[a]quinolizine-3-carboxylic acid]: 3420 nM.
Consider `COc1cc2c(cc1OCCCS(C)(=O)=O)CC(C(C)(C)C)n1cc(C(=O)O)c(=O)cc1-2` (single isomer, unassigned; (-)) [Example 188, (−)-6-tert-butyl-10-methoxy-9-(3-methylsulfonylpropoxy)-2-oxo-6,7-dihydrobenzo[a]quinolizine-3-carboxylic acid], for which the IC50 turned out to be 220 nM.

The test is the same for the next values; noted with them: HBsAg secretion reduced by 50% vs no drug control; HepG2.2.15 cells; CLIA kit; hydrochloride.
With `COc1cc2c(cc1OCCCCCCCCN)CC(C(C)(C)C)n1cc(C(=O)O)c(=O)cc1-2` (single isomer, unassigned; (-)) [Example 171, (−)-9-(8-aminooctoxy)-6-tert-butyl-10-methoxy-2-oxo-6,7-dihydrobenzo[a]quinolizine-3-carboxylic acid hydrochloride], the IC50 turned out to be 420 nM.

Still in this test, the particulars now being: Hepatitis B virus, HepG2.2.15, HBsAg secretion reduced by 50% vs no drug control; HepG2.2.15 cells; CLIA kit.
`COc1cc2c(cc1OCc1ccccc1)CC(C)n1cc(C(=O)O)c(=O)cc1-2` (centres unmarked) [Example 1, 9-benzyloxy-10-methoxy-6-methyl-2-oxo-6,7-dihydrobenzo[a]quinolizine-3-carboxylic acid] yielded a half-maximal inhibitory concentration (IC50) of 13 nM.
Regarding `COc1cc2c(cc1OCCCN1CCCC1)CC(C(C)(C)C)n1cc(C(=O)O)c(=O)cc1-2` (centres unmarked) [Example 196, 6-tert-butyl-10-methoxy-2-oxo-9-(3-pyrrolidin-1-ylpropoxy)-6,7-dihydrobenzo[a]quinolizine-3-carboxylic acid], inhibition was half-maximal at 120 nM (IC50).
The compound `COc1cc2c(cc1C)-c1cc(=O)c(C(=O)O)cn1C(C)C2` (centres unmarked) [Example 73, 9-methoxy-6,10-dimethyl-2-oxo-6,7-dihydrobenzo[a]quinolizine-3-carboxylic acid] displayed a half-maximal inhibitory concentration (IC50) of 140 nM.
Same read-out and setting: next, `COc1cc2c(c(Cl)c1OC)CC(C)n1cc(C(=O)O)c(=O)cc1-2` (centres unmarked) [Example 83, 8-chloro-9,10-dimethoxy-6-methyl-2-oxo-6,7-dihydrobenzo[a]quinolizine-3-carboxylic acid]: 5600 nM; `CCC1Cc2cc(OCCn3ccnc3)c(OC)cc2-c2cc(=O)c(C(=O)O)cn21` (centres unmarked) [Example 26, 6-ethyl-9-(2-imidazol-1-ylethoxy)-10-methoxy-2-oxo-6,7-dihydrobenzo[a]quinolizine-3-carboxylic acid]: 1650 nM.
On to `COCCCCOc1cc2c(cc1OC)-c1cc(=O)c(C(=O)O)cn1C(C(C)C)C2` (centres unmarked) [Example 148, 6-isopropyl-10-methoxy-9-(4-methoxybutoxy)-2-oxo-6,7-dihydrobenzo[a]quinolizine-3-carboxylic acid], for which inhibition was half-maximal at 5 nM (IC50).
In turn, `CCCOc1cc2c(cc1OC)CC(C)n1cc(C(=O)O)c(=O)cc1-2` (centres unmarked) [Example 87, 9-methoxy-6-methyl-2-oxo-10-propoxy-6,7-dihydrobenzo[a]quinolizine-3-carboxylic acid] yielded an IC50 of 1550 nM.
Same read-out and setting: to `COc1cc2c(cc1OCC#CCO)CC(C(C)(C)C)n1cc(C(=O)O)c(=O)cc1-2` (centres unmarked) [Example 159, 6-tert-butyl-9-(4-hydroxybut-2-ynoxy)-10-methoxy-2-oxo-6,7-dihydrobenzo[a]quinolizine-3-carboxylic acid] belongs 66 nM.
In turn, `COc1cc2c(cc1OC)-c1cc(=O)c(C(=O)O)cn1C(C(F)(F)F)C2` (centres unmarked) [Example 114, 9,10-dimethoxy-2-oxo-6-(trifluoromethyl)-6,7-dihydrobenzo[a]quinolizine-3-carboxylic acid] had an IC50 of 150 nM.
In turn, `CC[C@@H]1[C@H](C)c2cc(OCCOC)c(Cl)cc2-c2cc(=O)c(C(=O)O)cn21` (relative stereo) [Example 212B, (6R*,7R*)-10-chloro-6-ethyl-9-(2-methoxyethoxy)-7-methyl-2-oxo-6,7-dihydrobenzo[a]quinolizine-3-carboxylic acid] yielded an IC50 of 29 nM.
Still for that read-out and setting: next, `COCCOc1cc(Cl)c2c(c1)CC(C(C)C)n1cc(C(=O)O)c(=O)cc1-2` (centres unmarked) [Example 111, 11-chloro-6-isopropyl-9-(2-methoxyethoxy)-2-oxo-6,7-dihydrobenzo[a]quinolizine-3-carboxylic acid]: 40 nM; `COc1cc2c(cc1OCCCCCNC(=O)OC(C)(C)C)CC(C(C)(C)C)n1cc(C(=O)O)c(=O)cc1-2` (centres unmarked) [Example 172, 9-[5-(tert-butoxycarbonylamino)pentoxy]-6-tert-butyl-10-methoxy-2-oxo-6,7-dihydrobenzo[a]quinolizine-3-carboxylic acid]: 2 nM; `COc1ccc2c(c1Cl)CC(C)n1cc(C(=O)O)c(=O)cc1-2` (centres unmarked) [Example 82, 8-chloro-9-methoxy-6-methyl-2-oxo-6,7-dihydrobenzo[a]quinolizine-3-carboxylic acid]: 5270 nM.
